Among the test systems are DLD-1; DMS-114; DMS-273; HOP-18; KM-20L2; LOX IMVI; M14; M19-MEL; Malme-3M; SNB-75; SW-620; TK-10; XF498; MCF7; NCI/ADR-RES; BT-549; DU-145; MDA-MB-231; PC-3; T47D.
What all share (assay): inhibition of tumour cell growth, NCI panel, 48 h

From ChEMBL document CHEMBL1201862, “PubChem BioAssay data set” (2004) come the findings set out here.

The structures appear in SMILES notation.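 Test compounds were applied to cells in 96-well plates for 48 hours at 5 doses. The concentration for 50% growth inhibition is given as GI50.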 Activity calls are given as the source filed them. Rule as the data show it: active = GI50 up to about 1.1 µM and inactive = higher. Bounds are passed on as bounds.

Take `COc1ccc(C(=O)Cc2ccc(Cl)cc2)cc1OC`: the GI50 in the experiment on DLD-1, with DMS-114, in the experiment on DMS-273, in the experiment with HOP-18, in the experiment with KM-20L2 and with LOX IMVI was > 100 µM (inactive) each time. For the same compound, the GI50 with M14 was > 100 µM (inactive); in the experiment with M19-MEL, > 100 µM (inactive); in the experiment with Malme-3M it was > 100 µM (inactive); with SNB-75, 34.4 µM (inactive); in the experiment with SW-620 it was > 100 µM (inactive); with TK-10, > 100 µM (inactive). The GI50 in the experiment on XF498 is > 100 µM (inactive).

For the compound `CN(C)CCNC(=O)c1cccc2[nH]c(-c3ccc(Cl)cc3)nc12`, the GI50 in the experiment with DLD-1 is 4.8 µM (inactive); in the experiment on DMS-114, 8.61 µM (inactive); in the experiment with DMS-273 it was 4.03 µM (inactive); with HOP-18 it was 14.4 µM (inactive); with KM-20L2, 5.14 µM (inactive); in the experiment on LOX IMVI it was 4.42 µM (inactive). In addition, the GI50 was 6.98 µM (inactive) with M19-MEL; 3.66 µM (inactive) with MCF7; 6.82 µM (inactive) in the experiment with Malme-3M; 5.42 µM (inactive) with NCI/ADR-RES; 4.4 µM (inactive) in the experiment on SNB-75; 3.96 µM (inactive) in the experiment with SW-620. Besides, in the experiment on XF498, the GI50 was 4.49 µM (inactive).

With `Cc1cc(Cl)ccc1NC1=NC(=O)C(CC(=O)Nc2cccc(Cl)c2)S1` (stereo not given), the GI50 was 21.7 µM (inactive) with DLD-1; 12.1 µM (inactive) in the experiment on DMS-114; 29.8 µM (inactive) with DMS-273; > 100 µM (inactive) in the experiment with HOP-18; 26.5 µM (inactive) with KM-20L2; 13.3 µM (inactive) in the experiment with LOX IMVI. In addition, the GI50 was 44.7 µM (inactive) with M14; 43.9 µM (inactive) in the experiment with M19-MEL; > 100 µM (inactive) with Malme-3M; 18.7 µM (inactive) in the experiment on SNB-75; 67 µM (inactive) in the experiment with SW-620; 83.6 µM (inactive) in the experiment with TK-10. The GI50 with XF498 was 28.4 µM (inactive).

With `O=C1C(Cl)=C(c2ccc([N+](=O)[O-])cc2)C(=O)c2c(O)cccc21`, the GI50 is 1.03 µM (active) with BT-549; 1.16 µM (inactive) in the experiment on DLD-1; 0.202 µM (active) in the experiment with DMS-114; 4.06 µM (inactive) in the experiment with DMS-273; 6.04 µM (inactive) in the experiment on DU-145; 0.573 µM (active) in the experiment on HOP-18. For the same compound, the GI50 with LOX IMVI was 1.39 µM (inactive); with M14, 0.979 µM (active); with M19-MEL, 1.57 µM (inactive); in the experiment with MCF7, 4.88 µM (inactive); in the experiment on MDA-MB-231, 1.03 µM (active); in the experiment on Malme-3M, 2.09 µM (inactive). For the same compound, the GI50 in the experiment on NCI/ADR-RES is 2.39 µM (inactive); with PC-3, 2.12 µM (inactive); in the experiment with SNB-75, 1.83 µM (inactive); in the experiment with SW-620, 1.96 µM (inactive); in the experiment with T47D, 2.37 µM (inactive); in the experiment with TK-10 it was 3.14 µM (inactive). The GI50 with XF498 is 0.395 µM (active).

Consider `Cn1c(=O)c2nc(N3CCOCC3)cnc2n(C)c1=O`, for which the GI50 in the experiment on DLD-1, in the experiment on DMS-114, with DMS-273, in the experiment on KM-20L2, with M14 and in the experiment with M19-MEL was > 100 µM (inactive) each time. Also, the GI50 in the experiment on Malme-3M, in the experiment with SNB-75, in the experiment on SW-620, with TK-10 and in the experiment with XF498 was > 100 µM (inactive) in each case.

Consider `COc1cc(C2(c3ncc[nH]3)SSSCC2O)ccc1O` (stereo not given), for which the GI50 with DLD-1 is 58.5 µM (inactive); with DMS-114 it was 18.2 µM (inactive); in the experiment on DMS-273, 30.1 µM (inactive); in the experiment with HOP-18, > 66.4 µM (inactive); in the experiment on KM-20L2 it was > 92.5 µM (inactive); in the experiment with LOX IMVI, 19.1 µM (inactive). The GI50 in the experiment on M19-MEL is 12.2 µM (inactive); in the experiment on MCF7, 39.6 µM (inactive); with NCI/ADR-RES, > 40.6 µM (inactive); with SNB-75, > 100 µM (inactive); with SW-620, 33 µM (inactive); in the experiment with XF498, > 71 µM (inactive).

Turning to `Cn1ccnc1C(O)(c1nccn1C)c1nccn1C`, the GI50 was > 100 µM (inactive) in the experiment on DLD-1; > 100 µM (inactive) in the experiment with DMS-114; 14.1 µM (inactive) with HOP-18; > 100 µM (inactive) with LOX IMVI; > 100 µM (inactive) in the experiment on M14; > 100 µM (inactive) in the experiment on M19-MEL. Besides, the GI50 with Malme-3M, with SNB-75, with SW-620, in the experiment on TK-10 and with XF498 was > 100 µM (inactive) each time.

For the compound `C=CCN(N=O)C(=O)N(CCC)CCCCC(NC(C)=O)C(=O)NCc1ccccc1` (stereo not given), the GI50 is 59.2 µM (inactive) in the experiment on DMS-114; > 100 µM (inactive) in the experiment with DMS-273; > 100 µM (inactive) with HOP-18; 91.6 µM (inactive) with KM-20L2; 67.1 µM (inactive) with LOX IMVI; > 100 µM (inactive) with M14. Besides, the GI50 was 56 µM (inactive) in the experiment on M19-MEL; > 100 µM (inactive) in the experiment on Malme-3M; 71.8 µM (inactive) with SNB-75; > 100 µM (inactive) in the experiment with SW-620; > 100 µM (inactive) in the experiment on TK-10; > 100 µM (inactive) with XF498.

On to `CC(C)C1NC(=O)CC(c2ccccc2)N(N=O)C1c1ccccc1` (stereo not given), for which the GI50 in the experiment on DLD-1 was > 100 µM (inactive); in the experiment on DMS-114, > 95.7 µM (inactive); in the experiment with DMS-273 it was > 100 µM (inactive); in the experiment with HOP-18, > 100 µM (inactive); with KM-20L2, > 100 µM (inactive); in the experiment with LOX IMVI, > 100 µM (inactive). Besides, the GI50 in the experiment with M19-MEL, with MCF7, in the experiment on Malme-3M, with NCI/ADR-RES, with SNB-75 and in the experiment with SW-620 was > 100 µM (inactive) throughout. Besides, in the experiment on XF498, the GI50 is 37.8 µM (inactive).

Regarding `O=C1C2=C(C3=NCCc4c[nH]c1c43)c1c(Br)cc(Br)cc1CCN2`, the GI50 in the experiment with DLD-1 was 1.79 µM (inactive); in the experiment on DMS-114, 2.02 µM (inactive); in the experiment on DMS-273, 3.12 µM (inactive); in the experiment with HOP-18, 3.15 µM (inactive); in the experiment on KM-20L2, 2.75 µM (inactive); with LOX IMVI, 1.23 µM (inactive). Besides, the GI50 is 0.661 µM (active) in the experiment on M19-MEL; 1.8 µM (inactive) in the experiment with MCF7; 4.71 µM (inactive) in the experiment with NCI/ADR-RES; 8.93 µM (inactive) in the experiment with SNB-75; 2.24 µM (inactive) in the experiment on SW-620; 10.7 µM (inactive) in the experiment on XF498.

For the compound `CO/C=C1\OC(=O)C=C1OC`, the GI50 in the experiment with DLD-1, in the experiment on DMS-114, in the experiment with DMS-273, in the experiment on HOP-18, in the experiment with LOX IMVI and in the experiment with M19-MEL was > 100 µM (inactive) throughout. Moreover, the GI50 in the experiment on MCF7, in the experiment with Malme-3M, in the experiment on NCI/ADR-RES, in the experiment with SNB-75, in the experiment with SW-620 and in the experiment on XF498 was > 100 µM (inactive) each time.

On to `c1ccc(COC2(OCc3ccccc3)CC3OC2C2NN=NC32)cc1` (stereo not given), for which the GI50 in the experiment on DLD-1 is 15.8 µM (inactive); in the experiment with DMS-273, 21.2 µM (inactive); with HOP-18, 36.2 µM (inactive); with KM-20L2 it was 54.6 µM (inactive); with LOX IMVI it was 16.8 µM (inactive); in the experiment with M14 it was 18.5 µM (inactive). Also, the GI50 is 17.7 µM (inactive) in the experiment on M19-MEL; 22.4 µM (inactive) in the experiment with Malme-3M; 16.9 µM (inactive) in the experiment with SNB-75; 12.5 µM (inactive) with SW-620; 19.3 µM (inactive) in the experiment with XF498.

Turning to `Cc1c2cc[n+](Cc3ccc(I)cc3)cc2c(C)c2c1[nH]c1ccccc12`, the GI50 in the experiment with DLD-1 is 0.94 µM (active); with DMS-114 it was 0.605 µM (active); in the experiment on DMS-273 it was 0.506 µM (active); in the experiment with HOP-18 it was 1 µM (active); in the experiment with KM-20L2, 0.748 µM (active); with LOX IMVI it was 2.16 µM (inactive). The GI50 with M19-MEL was 0.254 µM (active); in the experiment on MCF7 it was 0.783 µM (active); with Malme-3M it was 0.582 µM (active); in the experiment on NCI/ADR-RES, > 25 µM (inactive); with SNB-75, 0.0914 µM (active); with SW-620 it was 0.912 µM (active). In addition, in the experiment with XF498, the GI50 was 0.433 µM (active).
